Source: the NIST ThermoML archive (doi:10.1021/je1002237)

Experiment: xn = mol fraction of the nth substance listed
Details: 101 kPa, Liquid

CCOS(=O)(=O)[O-].CCn1cc[n+](C)c1 [1-ethyl-3-methylimidazolium ethyl sulfate] + CC1COC(=O)O1
x2 = 0
Details	mass density [kg/m3]
278.15 K	1251.04
283.15 K	1247.5
288.15 K	1244.04
293.15 K	1240.66
298.15 K	1237.27
303.15 K	1233.89
308.15 K	1230.51

CCOS(=O)(=O)[O-].CCn1cc[n+](C)c1 [1-ethyl-3-methylimidazolium ethyl sulfate] + CC#N
mass density [kg/m3]
Details	278.15 K	283.15 K	288.15 K	293.15 K	298.15 K	303.15 K	308.15 K
x2 = 0	1251.04	1247.5	1244.04	1240.66	1237.27	1233.89	1230.51
x2 = 0.0051	1250.84	1247.29	1243.84	1240.44	1237.06	1233.68	1230.3
x2 = 0.0099	1250	1246.45	1243.01	1239.61	1236.22	1232.83	1229.45
x2 = 0.0202	1249.09	1245.54	1242.11	1238.69	1235.31	1231.91	1228.53
x2 = 0.0499	1245.66	1242.09	1238.68	1235.26	1231.85	1228.44	1225.03
x2 = 0.1001	1239.88	1236.38	1232.93	1229.48	1226.04	1222.6	1219.16
x2 = 0.1426	1236.22	1232.77	1229.28	1225.81	1222.35	1218.9	1215.45
x2 = 0.2507	1218.64	1215.07	1211.5	1207.95	1204.39	1200.86	1197.33
x2 = 0.3434	1202.08	1198.44	1194.79	1191.15	1187.54	1183.93	1180.33
x2 = 0.4592	1177.36	1173.6	1169.85	1166.12	1162.39	1158.68	1154.98
x2 = 0.5799	1140.91	1137	1133.1	1129.22	1125.35	1121.49	1117.63
x2 = 0.679	1101.24	1097.17	1093.12	1089.08	1085.03	1081	1076.97
x2 = 0.7423	1068.73	1064.52	1060.33	1056.15	1051.97	1047.8	1043.63
x2 = 0.7865	1041.05	1036.74	1032.43	1028.13	1023.83	1019.53	1015.24
x2 = 0.8539	988.5	983.97	979.43	974.91	970.37	965.84	961.31
x2 = 0.897	945.89	941.18	936.47	931.76	927.04	922.31	917.58
x2 = 0.9342	902.15	897.28	892.39	887.47	882.61	877.89	873.12
x2 = 0.9567	871.14	866.13	861.1	856.07	851.01	845.95	840.87
x2 = 0.9707	849.53	844.43	839.31	834.19	829.04	823.87	818.69
x2 = 0.9803	833.78	828.62	823.44	818.24	813.02	807.78	802.52
x2 = 0.9872	821.79	816.57	811.34	806.09	800.81	795.52	790.19
x2 = 0.9925	812.49	807.23	801.95	796.67	791.34	786	780.62
x2 = 0.9967	804.39	799.09	793.78	788.44	783.08	777.69	772.28

CCOS(=O)(=O)[O-].CCn1cc[n+](C)c1 [1-ethyl-3-methylimidazolium ethyl sulfate] + CC(C)=O
mass density [kg/m3]
Details	278.15 K	283.15 K	288.15 K	293.15 K	298.15 K	303.15 K	308.15 K
x2 = 0	1251.04	1247.5	1244.04	1240.66	1237.27	1233.89	1230.51
x2 = 0.0048	1250.35	1246.8	1243.35	1239.97	1236.57	1233.18	1229.8
x2 = 0.0098	1249.71	1246.16	1242.72	1239.31	1235.93	1232.54	1229.15
x2 = 0.015	1248.99	1245.43	1242	1238.59	1235.2	1231.8	1228.41
x2 = 0.0249	1247.95	1244.39	1240.97	1237.55	1234.16	1230.76	1227.37
x2 = 0.0399	1245.49	1241.93	1238.51	1235.1	1231.67	1228.26	1224.86
x2 = 0.06	1242.52	1238.99	1235.56	1232.12	1228.69	1225.26	1221.85
x2 = 0.0799	1239.64	1236.15	1232.7	1229.24	1225.79	1222.35	1218.92
x2 = 0.1002	1236.48	1233.02	1229.54	1226.07	1222.61	1219.16	1215.71
x2 = 0.1501	1228.75	1225.24	1221.72	1218.21	1214.71	1211.21	1207.73
x2 = 0.2066	1218.26	1214.69	1211.11	1207.54	1204	1200.46	1196.93
x2 = 0.2998	1200.04	1196.37	1192.71	1189.06	1185.43	1181.81	1178.19
x2 = 0.3999	1176.43	1172.65	1168.88	1165.13	1161.39	1157.66	1153.94
x2 = 0.5	1146.24	1142.32	1138.42	1134.53	1130.65	1126.78	1122.92
x2 = 0.6	1109.44	1105.35	1101.27	1097.2	1093.15	1089.1	1085.07
x2 = 0.7	1062.54	1058.23	1053.92	1049.61	1045.32	1041.02	1036.74
x2 = 0.8	1001.65	997.03	992.4	987.78	983.15	978.52	973.88
x2 = 0.9003	920.34	915.32	910.28	905.21	900.15	895.06	889.95
x2 = 0.95	869.49	864.22	858.92	853.61	848.26	842.89	837.49
